In patent publication US20240050406A1, “COMPOSITION COMPRISING OXIRACETAM FOR PREVENTING OR TREATING MUSCULAR DISEASE” (KSB TUGEN INC., priority 2021, published 2024):

How the values were obtained:
[1] = test system: model of sarcopenia caused by aging; assay: Aging animal model, 24-month-old mice, oxiracetam per concentration (Experimental Example 3); type: in vivo, C57BL/6J mice
Description: For an experimental group in the present invention, oxiracetam having a structure of Formula 1 was purchased from Tokyo Chemical Industry (Japan; Product No. 00398, CAS RN:62613-82-5, purity: 96%) and used.
As a model of sarcopenia caused by aging, 24-month-old male C57BL/6J mice were used. Until the day of the experiment, general feed (EEGJ30060: Cargill Agri Purina, Seongnam, Korea) and water were sufficiently supplied to the experimental animals, and the animals were acclimated for 1 week under an environment of a temperature of 23±2° C., a humidity of 55±10%, and a light-dark cycle of 12 hours-12 hours and used in the experiment.
The animals were randomly divided into groups of 10 animals, such as a control (vehicle, n=10), and 42, 83, 167, 333 mg/kg/day oxiracetam-administered groups (n=10 per concentration). To the oxiracetam-administered group, oxiracetam was orally administered using a Zonde needle for 93 days once a day at a dose of 42, 83, 167, or 333 mg/kg/day. During the same period, no drug was administered to the control group, and 100 μL of normal saline was orally administered at one time.
To measure grip strength, a grip strength test was performed. The maximum force presented when the forelimbs of an animal model of each group could no longer hold the rod by pulling the tail horizontally while holding the tail of the animal model and holding the rod of a device with both front paws was considered to be grip strength (N). The grip strength was measured once every 3 days, and after repeating five measurements at one time, the average value was shown. Grip strength adaptation training was performed at least three times before drug administration.
The lean body mass for the gastrocnemius muscle (GS) and tibialis anterior (TA) for each group was measured every 7 days. Specifically, animal models of each group were anesthetized using 3% isoflurane, fixed to a photographing bed, and then photographed. The respiration rates and temperatures of the animal models during photographing were measured using an animal monitoring system (SA Instruments, USA).
The whole body of the animal model was photographed through dual energy X-ray absorptiometry (DEXA) using iNSiGHT VET DXA (Osteosys, KR), and the lean body mass of each of the gastrocnemius muscle (GS) and the tibialis anterior (TA) was measured and calculated from the two-dimensional images of the gastrocnemius muscle (GS) and the tibialis anterior (TA) by a program using the region of interest (ROI).
Statistical processing was performed using GraphPad Prism (GraphPad Software Inc., San Diego, CA, USA). The results of each repeated experiment were expressed as mean±standard error of mean, and analyzed using the analysis of variance (Tukey's test), and statistical significance was acknowledged when the P-value was 0.05 or less.

DMD animal model = assay: Duchenne muscular dystrophy animal model (Experimental Example 6); type: in vivo, mice (C57BL/10 ScSn-Dmdmdx/J); details: mdx mice, oxiracetam 30 mg/kg oral daily 35 days
Experimental: As experimental animals, 23-week-old male mice (C57BL/10 ScSn-Dmdmdx/J) were purchased from the Jackson Laboratory (USA) to conduct experiments. All animals were maintained under conditions of a temperature of 23±2° C. and a relative humidity of 55±10%. Before the initiation of the experiment, a total of 20 mice were randomly divided into groups of 10 animals. After adaptation for 1 week, 30 mg/kg of oxiracetam of Example 1 was orally administered daily for 35 days (drug-administered group, oxiracetam). Here, for the control (vehicle), instead of a sample, normal saline was orally administered.
For statistical analysis of the experiment, significant differences in mean values between groups were confirmed using a paired t-test, and p<0.05 is denoted as *, p<0.01 is denoted as **, p<0.001 is denoted as ***, and no significant difference is denoted as N.S. An error bar represents S.E.M.
Total lean body mass, body fat content (fat, %), the lean body mass of the gastrocnemius muscle (GS), and the lean body mass of the tibialis anterior (TA) were analyzed by dual energy X-ray absorptiometry (DEXA) every 7 days from the first day (day 0) of oral administration. Specifically, animal models of each group were anesthetized using 3% isoflurane, fixed to a photographing bed and then photographed. During photographing, the respiratory rates and body temperatures of the animal models were measured with an animal monitoring system (SA Instruments, USA).
The whole body of the animal model was photographed through dual energy X-ray absorptiometry (DEXA) using iNSiGHT VET DXA (Osteosys, KR), and the total lean body mass and the body fat content (fat, %) were analyzed. In addition, from the photographed images, the two-dimensional images of the gastrocnemius muscle (GS) and the tibialis anterior (TA) were assigned to the region of interest (ROI) using a program, and the lean body mass of each of the gastrocnemius muscle (GS) and the tibialis anterior (TA) was measured and calculated. Since the DEXA image can be used to measure and analyze the lean body mass, fat, and bone density of a mouse, it is possible to measure and calculate not only detailed lean body mass but also total lean body mass and body fat content (fat, %).
Grip strength was measured every 2 days from the first day (day 0) of oral administration. The measurement of the grip strength was performed using a grip strength meter for mice (BIOSEB), a mouse was placed on a wire mesh attached to a gauge capable of monitoring the strength, and the tail of the mouse was pulled downward to measure a force of grabbing the wire mesh. The average value was recorded by repeating measurement five consecutive times.
Body weights were measured every day from the first day (day 0) of oral administration.

[2] = Oxi 42, 83, 167 and 333 mg/kg/day, DEXA every 7 days, compared to control
[3] = Oxi 333 group (333 mg/kg/day), among dose groups
[4] = day 35, compared to control (vehicle)

NC(=O)CN1CC(O)CC1=O (racemic) [oxiracetam, (RS)-2-(4-hydroxy-2-oxopyrrolidin-1-yl)acetamide]
dose dependence of the effect on grip strength ([1]; 42-333 mg/kg/day oral 93 days): increases in a concentration-dependent manner | change in grip strength (decrease in grip strength) ([1]; Oxi 42, 83, 167 and 333 mg/kg/day oral 93 days, versus control (vehicle)): significantly inhibited and rather increased | lean body mass of the gastrocnemius muscle (GS) [1, 2]: rather significantly increased | lean body mass of the tibialis anterior (TA) [1, 2]: rather significantly increased | lean body mass of the gastrocnemius muscle (GS) [1, 3]: greatest increase | lean body mass of the tibialis anterior (TA) [1, 3]: greatest increase | change in body weight (DMD animal model): does not exhibit a significant effect | change in grip strength (DMD animal model): significantly increased | pseudohypertrophy (characteristic symptom of DMD) (DMD animal model): reduced | lean body mass of the gastrocnemius muscle (GS) (DMD animal model; compared to control): significantly increased | lean body mass of the tibialis anterior (TA) (DMD animal model; compared to control): significantly increased | body fat mass (fat, %) (DMD animal model; [4]): significantly reduced | total lean body mass (DMD animal model; [4]): significantly increased
